Patent US20250268748A1, “TREATMENT OF SPINAL MUSCULAR ATROPHY BY INDUCING HEAT SHOCK RESPONSE” (THE RESEARCH INSTITUTE AT NATIONWIDE CHILDREN'S HOSPITAL, priority 2016, published 2025)

Assays:
[1] = test system: SMN2 full length splicing in MCF-7 cells; assay: 17-DMAG HSP90 inhibition, RT-PCR of SMN exon 7 splicing with or without heat shock; assay type: cell-based; conditions: for SMN2 full length splicing: 8 hours
Method: FIG. 7 provide an image and a graph showing that HSP90 inhibition prevents heat-induced SMN splicing correction. HSP90 inhibition was performed with 17-DMAG in MCF-7 cells. Dose responses were analyzed at 0, 10, 20, 40 nM 17-DMAG for 8 hours, with or without 41° C. heat treatment. Total RN A was harvested and RT-PCR amplification of SMN transcripts was used to observe splicing levels of exon 7. Significance levels are: * p-value<0.05, **p-value <0.01.
To validate the role of HSP90 in the SMN2 splicing under heat shock, the HSP90 ATPase inhibitor, 17-DMAG was administered to MCF-7 cells. 17-DMAG was administered at 0, 10 nM, 20 nM, and 40 nM concentrations the same time as the heat shock treatment, for the duration of 8 hours. Experiments were performed in parallel at 37° C. and 41° C. […] (FIG. 7). […] Full length SMN2 is quantitated for all samples and three trials are graphed, showing significant alterations in SMN splicing.
17-DMAG (17-Dimethylaminoethylamino-17-demethoxygeldanamycin) was purchased from Cayman Chemicals and resuspended in DMSO to a 20 mM stock. Then treatments were administered to cultured cells at a density of 75% in 6 well plates.
Cells grown under normal conditions (37° C.) were grown in a 5% C02, humidified incubator. Cells grown under heat shock conditions (38°-41° C.) were cultured at 5% C02, humidified incubators set to respective temperatures and monitored for temperature fluctuations with calibrated digital thermometer. Cells were maintained at their temperature treatment for the duration of the time point and harvested for RNA or protein directly following treatment.
Total RNA was isolated from samples using RNeasy kits (Qiagen). cDNA was created from RNA with Roche Transcriptor Reverse Transcriptase. cDNA was created from 1.5 ug of total RNA using random hexamers (Roche). PCR was performed with Sigma Taq Polymerase to detect exon 7 splicing of SMN1 and SMN2 transcripts. Primers were designed to flank exon 7 to visualize both full length and exon-skipped products: forward primer in exon 6 and reverse primer in exon 8. PCR cycles were performed with the following conditions: annealing temperature 62° C., 30 sec; 72° C. extension, 1 min; for 35 cycles. Importantly, there exists a unique digestion site (Ddel) within this PCR amplicon in exon 8 of SMN2. Therefore, to distinguish between SMN1 and SMN2transcripts, PCR products were digested with the enzyme Ddel. Subsequent digested PCR products were then resolved on 2.5% agarose gels (product sizes: SMN1 full-length: 507 bp, SMN1A7: 453 bp, SMN2 full-length: 392 bp, SMN2M: 338 bp). Splicing ratios were determined by densitometry (ImageQuant software, GE Healthcare Life Sciences) and statistical analysis (two tailed t test) performed using Graphpad Prism software.

[2] = test system: SMN2 exon 7 inclusion in differentiated SH-SY5Y cells; assay: Oxidative stress treatment, RT-PCR of SMN2 splicing; assay type: cell-based; conditions: 20 μM for 24 hours (oxidative stress)
Method: FIGS. 2A-2C provide graphs and images showing that heat shock increases the functional splicing product of SMN2 in a dose and time-dependent manner. A. Neuroblastoma cell line, SHSY-5Y, were differentiated for 7-9 days in 5 μM retinoic acid and then treated with various stresses to characterize the level of SMN2 as a stress-responsive gene. RNA splicing levels of SMN1 and 2 were observed by performing RTPCR analysis on total mRNA harvested from cell lysates. […] B. To test the cell-type specificity of the heat shock effect on SMN splicing, we performed a heat shock treatment on several cell lines. All treatments were performed with 24 hours of 41° C. and compared with NT (37° C.) quantitation is shown (n-3). This treatment was performed in Differentiated SHSY-5Y cells, SMA patient fibroblasts (GM03813), SMA carrier fibroblasts (GM03814), and a breast cancer cell line (MCF-7) cells. Heat treatment induces a significant change in splicing in all cell lines tested. C. To test the duration of heat treatment necessary for heat shock induced splicing correction a time course was performed. Differentiated SHSY-5Y cells were treated with 41° C. for 1, 4, 8, and 24 hour time intervals. D. To test the quantity of heat required to elicit splicing correction, a heat treatment dose response was performed. Differentiated SHSY-5Y cells were treated with temperatures from 37° to 41° C. for 8 hours. […]

Question: Which results are given for CO[C@H]1/C=C\C=C(/C)C(=O)NC2=CC(=O)C(NCCN(C)C)=C(C[C@@H](C)C[C@H](OC)[C@H](O)[C@@H](C)/C=C(\C)[C@@H]1OC(N)=O)C2=O [17-DMAG, 17-Dimethylaminoethylamino-17-demethoxygeldanamycin]?
Answer: SMN2 full length splicing ([1]; 10 nM, 37° C.): significant decrease; SMN2 full length splicing ([1]; 10 nM, 41° C.): significantly decreased the full length splicing to even below baseline splicing at 37 °C; SMN2 full length splicing ([1]; 20 nM, 37° C.): began to approach basal splicing levels; SMN2 full length splicing ([1]; 20 nM, 41° C.): significantly decreased the full length splicing to even below baseline splicing at 37 °C; SMN2 full length splicing ([1]; 40 nM, 37° C.): began to approach basal splicing levels; SMN2 full length splicing ([1]; 40 nM, 41° C.): significantly decreased the full length splicing to even below baseline splicing at 37 °C; heat shock-induced full length SMN2 splicing (summary statement) ([1]; heat shock): prevents

Question: OO [HO2] was tested. Which “SMN2 exon 7 inclusion” value [2] did it give?
Answer: mild decreases in exon 7 inclusion
